Among the data in US9452986B2, “6-heteroaryloxy- or 6-aryloxy-quinoline-2-carboxamides and method of use” (AbbVie Inc., priority 2014, dated 2016) are inhibition in vivo and IC50 values, retold here.

A word on the IC50: it is the midpoint of a concentration-inhibition curve.

Assay [1] has as its system osteoarthritic rats. As to the kind of experiment: Osteoarthritic (OA) pain induced by sodium monoiodoacetate (MIA), hind limb grip force. It is filed as in vivo, rat. The following applies: Rattus norvegicus, 480 h, read-out: OA MPE; for inhibition in vivo at 10 mg/kg: OA dose 10 mg/kg. The essentials: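 Activity-induced pain was read as maximum compressive hind limb grip force, two sequential trials normalized to body weight, 20 days after intra-articular MIA (3 mg/rat) in male Sprague Dawley rats. Randomized, blinded dosing; effect expressed as return toward naïve-animal response relative to vehicle.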

Assay [2] has as its target recombinant human Nav1.8 (Homo sapiens (Human), UniProt Q9Y5Y9). Nature of the assay: FRET-based membrane potential assay, recombinant human sodium channel Nav1.8. It is filed as cell-based.
Assay [3] concerns the target recombinant human Nav1.7 (Homo sapiens (Human), UniProt Q15858). Nature of the assay: FRET-based membrane potential assay, recombinant human sodium channel Nav1.7. It is filed as cell-based. The following applies: read-out: FRET-Membrane Potential Nav1.7 IC50. An outline of the steps:
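Channel activation used veratridine at its EC80, set by a dilution curve each experiment, together with Leiurus scorpion venom, added 3 min after compound. Membrane-potential ratio signals from FLIPR Tetra in HEPES-buffered HBSS were fitted to a four-parameter Hill equation for percent inhibition and IC50.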

The mark [4] stands for this setting: OA dose 30 mg/kg, rat, 20 days following MIA injection, hind limb grip force.
Setting [5] is: HEK293 cells stably expressing recombinant human Nav1.8, veratridine + scorpion venom depolarization.
[6] abbreviates: HEK293 cells stably expressing recombinant human Nav1.7, veratridine + scorpion venom depolarization.
Where [7] appears, read: rat, 20 days following MIA injection, hind limb grip force.

Like-named read-outs stand apart in the source and are kept apart here.

recombinant human Nav1.8, sequence (Q9Y5Y9 whole entry): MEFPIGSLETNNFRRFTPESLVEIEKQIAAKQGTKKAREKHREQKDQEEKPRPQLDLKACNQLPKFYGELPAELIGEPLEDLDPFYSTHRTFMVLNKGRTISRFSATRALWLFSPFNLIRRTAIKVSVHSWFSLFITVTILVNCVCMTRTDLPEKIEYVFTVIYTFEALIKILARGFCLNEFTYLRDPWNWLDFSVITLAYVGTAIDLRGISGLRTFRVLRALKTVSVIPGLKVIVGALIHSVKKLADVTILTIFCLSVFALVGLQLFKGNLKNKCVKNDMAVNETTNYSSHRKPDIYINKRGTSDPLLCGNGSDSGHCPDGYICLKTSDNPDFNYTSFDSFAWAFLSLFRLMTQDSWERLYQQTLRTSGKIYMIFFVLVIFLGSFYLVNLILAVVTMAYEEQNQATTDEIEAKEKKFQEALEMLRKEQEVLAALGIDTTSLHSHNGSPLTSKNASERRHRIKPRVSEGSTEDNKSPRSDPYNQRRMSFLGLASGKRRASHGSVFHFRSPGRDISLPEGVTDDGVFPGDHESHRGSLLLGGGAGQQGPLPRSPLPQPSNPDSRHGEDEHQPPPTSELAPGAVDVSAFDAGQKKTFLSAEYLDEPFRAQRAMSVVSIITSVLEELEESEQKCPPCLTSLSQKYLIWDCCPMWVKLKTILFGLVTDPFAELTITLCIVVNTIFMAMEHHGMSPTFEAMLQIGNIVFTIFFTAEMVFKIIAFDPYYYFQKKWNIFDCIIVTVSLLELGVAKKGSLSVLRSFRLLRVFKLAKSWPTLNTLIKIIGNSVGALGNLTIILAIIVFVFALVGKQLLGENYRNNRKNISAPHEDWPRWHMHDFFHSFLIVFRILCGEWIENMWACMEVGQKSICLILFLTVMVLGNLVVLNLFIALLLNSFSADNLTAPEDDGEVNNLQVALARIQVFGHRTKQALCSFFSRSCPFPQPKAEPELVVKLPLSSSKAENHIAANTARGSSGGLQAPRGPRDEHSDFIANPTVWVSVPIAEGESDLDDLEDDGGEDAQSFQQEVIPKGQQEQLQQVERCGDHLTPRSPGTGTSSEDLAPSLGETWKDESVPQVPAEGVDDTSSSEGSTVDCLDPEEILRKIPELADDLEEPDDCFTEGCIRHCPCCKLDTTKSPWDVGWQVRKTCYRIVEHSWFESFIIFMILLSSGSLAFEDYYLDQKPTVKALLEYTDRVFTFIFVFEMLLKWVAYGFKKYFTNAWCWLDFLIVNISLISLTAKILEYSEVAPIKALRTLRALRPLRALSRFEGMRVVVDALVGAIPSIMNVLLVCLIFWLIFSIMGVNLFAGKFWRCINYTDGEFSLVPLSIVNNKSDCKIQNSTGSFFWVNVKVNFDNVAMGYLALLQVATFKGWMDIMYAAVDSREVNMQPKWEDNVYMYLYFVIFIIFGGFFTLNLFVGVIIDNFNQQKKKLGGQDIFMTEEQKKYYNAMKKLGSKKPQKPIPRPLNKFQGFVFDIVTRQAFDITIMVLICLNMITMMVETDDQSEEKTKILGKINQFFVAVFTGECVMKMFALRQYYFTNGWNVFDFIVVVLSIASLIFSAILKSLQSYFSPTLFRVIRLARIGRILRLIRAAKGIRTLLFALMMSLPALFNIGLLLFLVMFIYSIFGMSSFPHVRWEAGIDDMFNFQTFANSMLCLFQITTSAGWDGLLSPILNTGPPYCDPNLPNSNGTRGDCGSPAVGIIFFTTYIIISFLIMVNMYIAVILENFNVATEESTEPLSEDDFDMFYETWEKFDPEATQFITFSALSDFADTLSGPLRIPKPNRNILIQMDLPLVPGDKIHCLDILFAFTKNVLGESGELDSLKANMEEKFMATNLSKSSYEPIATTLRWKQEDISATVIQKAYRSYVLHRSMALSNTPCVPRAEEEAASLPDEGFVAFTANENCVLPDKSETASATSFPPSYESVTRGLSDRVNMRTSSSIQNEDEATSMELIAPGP
recombinant human Nav1.7, sequence (Q15858 whole entry): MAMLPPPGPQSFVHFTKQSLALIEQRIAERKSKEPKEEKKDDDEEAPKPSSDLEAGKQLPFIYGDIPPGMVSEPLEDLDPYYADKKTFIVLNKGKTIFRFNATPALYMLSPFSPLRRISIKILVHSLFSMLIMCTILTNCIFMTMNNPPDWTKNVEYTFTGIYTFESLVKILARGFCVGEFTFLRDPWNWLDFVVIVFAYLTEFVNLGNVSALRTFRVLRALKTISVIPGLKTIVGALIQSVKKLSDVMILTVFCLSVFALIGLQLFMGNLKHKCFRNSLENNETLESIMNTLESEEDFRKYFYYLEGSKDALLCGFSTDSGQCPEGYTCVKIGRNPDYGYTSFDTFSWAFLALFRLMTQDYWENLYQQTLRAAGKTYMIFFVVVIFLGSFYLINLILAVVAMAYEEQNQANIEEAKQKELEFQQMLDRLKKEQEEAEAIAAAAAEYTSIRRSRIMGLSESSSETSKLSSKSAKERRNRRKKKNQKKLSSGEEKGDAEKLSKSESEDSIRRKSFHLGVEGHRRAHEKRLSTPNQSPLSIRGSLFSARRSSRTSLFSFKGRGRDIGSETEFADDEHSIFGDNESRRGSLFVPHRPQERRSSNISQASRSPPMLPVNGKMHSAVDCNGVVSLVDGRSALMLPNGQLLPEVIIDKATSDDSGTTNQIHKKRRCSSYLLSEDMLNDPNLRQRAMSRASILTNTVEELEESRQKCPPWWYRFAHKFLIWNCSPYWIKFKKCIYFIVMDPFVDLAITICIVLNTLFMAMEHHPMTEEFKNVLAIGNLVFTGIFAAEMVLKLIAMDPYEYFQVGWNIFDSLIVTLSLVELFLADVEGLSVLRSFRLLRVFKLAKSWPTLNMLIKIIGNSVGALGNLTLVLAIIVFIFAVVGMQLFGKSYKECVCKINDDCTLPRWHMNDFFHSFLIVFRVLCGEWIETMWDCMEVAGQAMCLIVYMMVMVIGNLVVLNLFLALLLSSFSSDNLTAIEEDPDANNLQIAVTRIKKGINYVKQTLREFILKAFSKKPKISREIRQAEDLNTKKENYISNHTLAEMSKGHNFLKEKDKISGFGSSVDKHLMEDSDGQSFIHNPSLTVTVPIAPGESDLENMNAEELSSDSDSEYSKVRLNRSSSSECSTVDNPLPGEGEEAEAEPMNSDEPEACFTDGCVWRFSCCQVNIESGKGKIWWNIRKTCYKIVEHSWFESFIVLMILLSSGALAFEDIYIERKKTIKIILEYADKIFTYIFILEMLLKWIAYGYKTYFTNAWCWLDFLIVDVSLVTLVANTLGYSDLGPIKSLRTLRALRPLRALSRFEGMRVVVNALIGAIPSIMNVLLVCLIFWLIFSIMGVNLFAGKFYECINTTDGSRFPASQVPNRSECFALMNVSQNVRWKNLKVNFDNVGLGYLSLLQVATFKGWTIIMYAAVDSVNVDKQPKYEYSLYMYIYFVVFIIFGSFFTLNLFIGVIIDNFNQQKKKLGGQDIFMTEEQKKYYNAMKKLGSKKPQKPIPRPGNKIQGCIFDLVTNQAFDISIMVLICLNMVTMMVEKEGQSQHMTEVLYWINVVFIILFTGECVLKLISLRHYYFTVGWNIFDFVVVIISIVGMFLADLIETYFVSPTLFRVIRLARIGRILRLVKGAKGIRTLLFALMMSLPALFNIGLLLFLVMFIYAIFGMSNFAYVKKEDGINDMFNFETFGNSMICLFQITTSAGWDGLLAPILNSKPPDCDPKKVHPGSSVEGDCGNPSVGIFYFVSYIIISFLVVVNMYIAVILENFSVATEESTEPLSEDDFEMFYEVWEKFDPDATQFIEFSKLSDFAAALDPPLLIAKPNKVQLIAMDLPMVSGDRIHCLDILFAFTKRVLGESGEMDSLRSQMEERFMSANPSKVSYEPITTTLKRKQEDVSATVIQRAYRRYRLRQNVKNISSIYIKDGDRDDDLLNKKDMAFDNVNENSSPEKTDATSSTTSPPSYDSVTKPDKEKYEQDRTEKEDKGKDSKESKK

As to `O=C(c1ccc2cc(Oc3ccc(C(F)(F)F)cn3)ccc2n1)N1CCN2CC(F)(F)C[C@H]2C1` [Example 53, [(8aS)-7,7-difluorohexahydropyrrolo[1,2-a]pyrazin-2(1H)-yl](6-{[5-(trifluoromethyl)pyridin-2-yl]oxy}quinolin-2-yl)methanone], the inhibition in vivo at 30 mg/kg in assay [1] (setting [4]) came out at 70%. Besides, the half-inhibitory concentration (IC50) in assay [2] (setting [5]) was 11000 nM; in assay [3] (setting [6]), 3260 nM.

Take `CC[C@@H]1CN(C(=O)c2ccc3cc(Oc4ccc(C(F)F)cn4)ccc3n2)CCN1` [Example 55, (6-{[5-(difluoromethyl)pyridin-2-yl]oxy}quinolin-2-yl)[(3R)-3-ethylpiperazin-1-yl]methanone]: in assay [1] (setting [7]), the inhibition in vivo at 10 mg/kg stood at 42%. Moreover, the figures for the IC50 in assay [2] and in assay [3] (setting [6]) were 2080 nM and 594 nM, respectively.

Take `COCCNC(=O)c1ccc2cc(Oc3ccc(C(F)(F)F)nc3)ccc2n1` [Example 56, N-(2-methoxyethyl)-6-{[6-(trifluoromethyl)pyridin-3-yl]oxy}quinoline-2-carboxamide]: in assay [1] (setting [7]), the inhibition in vivo at 10 mg/kg worked out at 43%. Also, the values for the IC50 in assay [2] (setting [5]) and in assay [3] (setting [6]) were 1490 nM and 3010 nM, respectively.

As for `O=C(c1ccc2cc(Oc3ccc(OC(F)F)cn3)ccc2n1)N1CCNCC1` [Example 57, (6-{[5-(difluoromethoxy)pyridin-2-yl]oxy}quinolin-2-yl)(piperazin-1-yl)methanone], the inhibition in vivo at 30 mg/kg in assay [1] (setting [4]) was found to be 53%. Moreover, the IC50 in assay [2] (setting [5]) is 870 nM; in assay [3] (setting [6]), 3190 nM.

Take `O=C1C[C@@H](NC(=O)c2ccc3cc(Oc4ccc(C(F)(F)F)cn4)ccc3n2)CN1` [Example 58, N-[(3R)-5-oxopyrrolidin-3-yl]-6-{[5-(trifluoromethyl)pyridin-2-yl]oxy}quinoline-2-carboxamide]: the inhibition in vivo at 30 mg/kg in assay [1] (setting [4]) came out at 64%. In addition, the results for the IC50 in assay [2] (setting [5]) and in assay [3] (setting [6]) were 2840 nM and 1030 nM, respectively.

Turning to `CCN1CCC(N(CC)C(=O)c2ccc3cc(Oc4ccc(C(F)(F)F)cn4)ccc3n2)CC1=O` (stereo not drawn) [Example 61, N-ethyl-N-(1-ethyl-2-oxopiperidin-4-yl)-6-{[5-(trifluoromethyl)pyridin-2-yl]oxy}quinoline-2-carboxamide], the inhibition in vivo at 10 mg/kg in assay [1] (setting [7]) worked out at 61%. In addition, the IC50 is 1140 nM in assay [2] (setting [5]) and 556 nM in assay [3] (setting [6]).

`C[C@@H]1CN(C(=O)c2ccc3cc(Oc4ccc(C(F)(F)F)nc4)ccc3n2)CCN1` [Example 62, [(3R)-3-methylpiperazin-1-yl](6-{[6-(trifluoromethyl)pyridin-3-yl]oxy}quinolin-2-yl)methanone]: the inhibition in vivo at 10 mg/kg in assay [1] (setting [7]) is -1%. The IC50 in assay [2] (setting [5]) was 120 nM; in assay [3] (setting [6]), 500 nM.

As to `COC[C@H]1CN(C(=O)c2ccc3cc(Oc4ccc(C(F)(F)F)nc4)ccc3n2)CCN1` [Example 63, [(3R)-3-(methoxymethyl)piperazin-1-yl](6-{[6-(trifluoromethyl)pyridin-3-yl]oxy}quinolin-2-yl)methanone], in assay [1] (setting [7]), the inhibition in vivo at 10 mg/kg came to 15%. The concentration for half-maximal inhibition (IC50) in assay [2] stood at 1160 nM; in assay [3] (setting [6]), 976 nM.

For `COC[C@@H]1CN(C(=O)c2ccc3cc(Oc4ccc(C(F)(F)F)nc4)ccc3n2)CCN1` [Example 64, [(3S)-3-(methoxymethyl)piperazin-1-yl](6-{[6-(trifluoromethyl)pyridin-3-yl]oxy}quinolin-2-yl)methanone], in assay [1] (setting [7]), the inhibition in vivo at 10 mg/kg was found to be 29%. For the same molecule, the values for the IC50 in assay [2] and in assay [3] (setting [6]) were 491 nM and 382 nM, respectively.

For the molecule `CS(=O)(=O)CCCNC(=O)c1ccc2cc(Oc3ccc(C(F)(F)F)cn3)ccc2n1` [Example 65, N-[3-(methylsulfonyl)propyl]-6-{[5-(trifluoromethyl)pyridin-2-yl]oxy}quinoline-2-carboxamide], in assay [1] (setting [4]), the inhibition in vivo at 30 mg/kg amounted to 63%. The IC50 came to 4230 nM in assay [2] (setting [5]) and 2250 nM in assay [3].

As for `NC1CN(C(=O)c2ccc3cc(Oc4ccc(C(F)(F)F)nc4)ccc3n2)C1` [Example 66, (3-amino azetidin-1-yl)(6-{[6-(trifluoromethyl)pyridin-3-yl]oxy}quinolin-2-yl)methanone], in assay [1] (setting [4]), the inhibition in vivo at 30 mg/kg turned out to be 52%. Moreover, the results for the IC50 in assay [2] and in assay [3] (setting [6]) were 1180 nM and 883 nM, respectively.

`CC1CN(C(=O)c2ccc3cc(Oc4ccc(C(F)F)cn4)ccc3n2)CC(C)N1` (stereo not drawn) [Example 67, (6-{[5-(difluoromethyl)pyridin-2-yl]oxy}quinolin-2-yl)(3,5-dimethylpiperazin-1-yl)methanone]: the inhibition in vivo at 10 mg/kg in assay [1] (setting [7]) was 43%. For the same molecule, the values for the IC50 in assay [2] (setting [5]) and in assay [3] (setting [6]) were 1750 nM and 1280 nM, respectively.

With `C[C@@H]1CN(C(=O)c2ccc3cc(Oc4ccc(C(F)F)cn4)ccc3n2)CCN1` [Example 68, (6-{[5-(difluoromethyl)pyridin-2-yl]oxy}quinolin-2-yl) [(3R)-3-methylpiperazin-1-yl]methanone], in assay [1] (setting [7]), the inhibition in vivo at 10 mg/kg turned out to be 52%. Moreover, the IC50 in assay [2] (setting [5]) was determined as 1890 nM; in assay [3] (setting [6]) it was 1210 nM.

On to `COC[C@@H]1CN(C(=O)c2ccc3cc(Oc4ccc(C(F)F)cn4)ccc3n2)CCN1` [Example 69, (6-{[5-(difluoromethyl)pyridin-2-yl]oxy}quinolin-2-yl)[(3S)-3-(methoxymethyl)piperazin-1-yl]methanone], for which the inhibition in vivo at 10 mg/kg in assay [1] (setting [7]) stood at 2%. In addition, the IC50 in assay [2] (setting [5]) was found to be 2320 nM; in assay [3] (setting [6]) it was 895 nM.

Consider `O=C(c1ccc2cc(Oc3ccc(C(F)(F)F)cn3)ccc2n1)N1CC(N2CC[C@@H](F)C2)C1` [Example 70, {3-[(3R)-3-fluoropyrrolidin-1-yl]azetidin-1-yl}(6-{[5-(trifluoromethyl)pyridin-2-yl]oxy}quinolin-2-yl)methanone], for which the inhibition in vivo at 10 mg/kg in assay [1] (setting [7]) was 23%. In addition, the IC50 in assay [2] is 821 nM; in assay [3], 1250 nM.

For the molecule `COC[C@H]1CN(C(=O)c2ccc3cc(Oc4ccc(C(F)F)cn4)ccc3n2)CCN1` [Example 71, (6-{[5-(difluoromethyl)pyridin-2-yl]oxy}quinolin-2-yl) [(3R)-3-(methoxymethyl)piperazin-1-yl]methanone], in assay [1] (setting [7]), the inhibition in vivo at 10 mg/kg was 33%. Besides, the concentration for half-maximal inhibition (IC50) worked out at 1640 nM in assay [2] (setting [5]) and 1810 nM in assay [3] (setting [6]).

With `O=C(c1ccc2cc(Oc3ccc(OC(F)(F)F)cn3)ccc2n1)N1CC[C@@H](F)C1` [Example 301, [(3R)-3-fluoropyrrolidin-1-yl](6-{[5-(trifluoromethoxy)pyridin-2-yl]oxy}quinolin-2-yl)methanone], in assay [1] (setting [4]), the inhibition in vivo at 30 mg/kg worked out at 58%. Besides, the 50% inhibitory concentration (IC50) in assay [2] (setting [5]) stood at 1400 nM; in assay [3] (setting [6]), 3120 nM.

Regarding `O=C(NCC(F)(F)F)c1ccc2cc(Oc3ccc(C(F)F)cn3)ccc2n1` [Example 436, 6-{[5-(difluoromethyl)pyridin-2-yl]oxy}-N-(2,2,2-trifluoroethyl)quinoline-2-carboxamide], the inhibition in vivo at 30 mg/kg in assay [1] (setting [4]) amounted to 51%. The IC50 in assay [2] (setting [5]) is 3420 nM; in assay [3] (setting [6]) it was 1740 nM.

Consider `O=C(c1ccc2cc(Oc3ccc(C(F)(F)F)cn3)ccc2n1)N1CCC12COC2` [Example 505, 6-oxa-1-azaspiro[3.3]hept-1-yl(6-{[5-(trifluoromethyl)pyridin-2-yl]oxy}quinolin-2-yl)methanone], for which the inhibition in vivo at 30 mg/kg in assay [1] was 52%. In addition, the concentration for half-maximal inhibition (IC50) came to 2300 nM in assay [2] (setting [5]) and 4940 nM in assay [3] (setting [6]).
